What was measured:
[1] = autoxidation at 100° C., fatty acids not treated with antioxidants; cited from earlier work
[2] = Odour reduction by lipid-treated spunlaced nonwoven wipes, headspace SPME-GC/MS; conditions: 1 g spunlaced nonwoven treated with 2 g lipid; 1000 ng/ml odour compound
Method: A spunlaced nonwoven with the trade name Fibrella 7160, available from Suominen (Finland) was used in these experiments. This material, which consists of about 60% polypropylene fibres and 40% rayon fibres, has a basis weight of about 50 g/m^2. Pieces with a weight of 1 g and an area of 0.020 m^2 were cut from the spunlaced nonwoven sheet. These pieces were then treated with lipids. 2 g of the lipid was dissolved in 4 g of either hexane or acetone and evenly distributed on the piece of nonwoven. Acetone was used to dissolve all ozonated oils and oleic acid while the other not ozonated oils where dissolved in hexane. After several hours, when the solvent had evaporated, the nonwoven pieces were folded and inserted into 60 ml vials, used for SPME analysis. The vials were then flushed with nitrogen gas and sealed.
Vials with a volume of 60 ml containing 1 g spunlaced nonwoven treated with 2 g lipid were used in these tests. The laboratory procedure was the same as earlier described when evaluating the odour reduction of fluffed pulp, see page 10-11. To each vial was added 3.9 ml phosphate buffered saline solution, pH 7.4 and 0.1 ml PEG300 with DMS, DMDS and IVA. The total concentration of each odour compound was 1000 ng/ml.

[3] = Peroxide value, AOCS Official Method Cd 8-53; assay type: physicochemical; conditions: Trial 2 lipids after ozonization; lipids used for treatment of wipes
Method: The degree of oxidation was tested by determining the peroxide value according to the test method AOCS Official Method Cd 8-53 Surplus 2003. The peroxide value for both the starting oils/fats and the ozonized oils/fats was determined.

[4] = Odour reduction by lipid-treated fluff pulp, headspace SPME-GC/MS; conditions: pulp with 30% by weight lipid; 1000 ng/ml odour substance; 3 h + 0.5 h at 35° C.; vs untreated pulp
Method: Sheets of sulfate pulp from Weyerhaeuser Inc., with the designation NB416, were impregnated with a solution of the tested oil/fat in hexane. To a pulp sheet weighing 10 g was added a solution of 4.29 g oil in 4.29 g hexane. The solution was evenly distributed over the surface of the sheets. When the hexane had evaporated the sheets contained 30% by weight oil/fat and 70% by weight pulp fibers. The treated sheets were defibrated in a Braun multimixer MX32 to produce fluff pulp.
1 g of treated pulp was put in a 60 ml vial, after which 3.9 ml of 0.01 M phosphate buffered saline solution pH 7.4 from Sigma was added. Then 0.1 ml PEG300 with DMS (dimethyl sulfide), DMDS (dimethyl disulfide) and IVA (isovaleric aldehyde) was added so that the concentration of each odour substance in the final solution was 1000 ng/ml.
After 3 h at 35° C. a SPME fiber (Supelco), 75 μm Carboxen-PDMS, was injected into the headspace above the pulp and after an additional 0.5 h the SPME fiber was analyzed with gas chromatography (GC), Thermo Finnigan Trace, with a MS detector. The peak area of each odour substance was determined for samples with treated pulp and the untreated reference pulp. The GC settings were:
Temperature program for GC: 30° C. (7 min), 3° C./min-70° C. (0 min), 40° C./min-250° C. (7 min). Column: ZB-624 (Zebron), 30 m, 0.25 mm i.d. 1.40 μm film thickness Inlet temperature: 250° C. Transfer line: 220° C.
MS: SIM (single ion monitoring). When DMS, IVA and DMDS were analyzed the following mass numbers were detected: 45, 46, 47, 57, 58, 61, 62, 79, 86 and 94.
The odour reduction was determined by comparing the peak area of the tested sample with the same peak area achieved when testing the untreated reference pulp. The calculation of the odour reduction in percent was made by the equation:
Odour reduction=100×(1−Actual peak area/Peak area of sample with untreated pulp)
These ozonized lipids were tested for their odour reducing effect on treated pulp in the same manner as under Trial 1 above. The only exception in the laboratory procedure was the method for treatment of the pulp with Acolectin.

CCCCCCCCCCCCCCCCCC(=O)O [Stearic acid]
Relative rate of oxidation [1]: 0.6

CCCCCCCC/C=C\CCCCCCCC(=O)O [Oleic acid, oleic acid]
Reduction of odour substances in %, DMDS [2]: 83.6% | Reduction of odour substances in %, DMS [2]: 67.4% | Reduction of odour substances in %, IVA [2]: 74.5% | Peroxide value [3]: 3.1 meqv./kg | Reduction of odour substances in %, DMDS [4]: 19.2% | Reduction of odour substances in %, DMS [4]: 67.5% | Reduction of odour substances in %, IVA [4]: 9.3% | Relative rate of oxidation [1]: 6

CCCCC/C=C\C/C=C\CCCCCCCC(=O)OCC [Ethyl linoleate, ethyl linoleate]
Reduction of odour substances in %, DMDS [4]: 0% | Reduction of odour substances in %, DMS [4]: 0% | Reduction of odour substances in %, IVA [4]: 0%

CCCCC/C=C\C/C=C\CCCCCCCC(=O)O [Linoleic acid]
Relative rate of oxidation [1]: 64

Source: patent publication US20110150959A1, “WIPE WITH ODOUR CONTROL SUBSTANCE” (SCA Hygiene Products AB, priority 2008, published 2011)
